Molecules are shown by their SMILES.

KRAS G12C and cRAF (Ras-binding domain) interaction, sequence (P01116 other isoform, or with tags, fused parts or gaps G12C/C51S/C80L/C118S): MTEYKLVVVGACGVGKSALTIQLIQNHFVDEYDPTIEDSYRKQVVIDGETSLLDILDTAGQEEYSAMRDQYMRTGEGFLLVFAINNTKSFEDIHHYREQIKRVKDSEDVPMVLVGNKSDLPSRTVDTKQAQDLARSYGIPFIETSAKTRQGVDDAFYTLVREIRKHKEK

This experiment addresses KRAS G12C and cRAF (Ras-binding domain) interaction (Homo sapiens (Human), UniProt P01116, C118S/C51S/C80L/G12C). Kind of experiment: Inhibition of KRAS G12C and cRAF binding (AlphaScreen). To be noted: GMPPNP-loaded KRAS G12C, 19-20 hours incubation with compound; read-out: IC50 (Inhibition of KRAS G12C and cRAF Binding). The gist of the method: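 IC50 values come from 4-parameter nonlinear regression of AlphaScreen signal (680 nm excitation, 570 nm emission). Compound plates sat 19-20 h at room temperature before RBD and donor/acceptor beads were added in Hepes pH 7.4 buffer with 150 mM NaCl, 5 mM MgCl2, 2% DMSO for 60-90 min; biotin-AviTag-GST replaced RBD to flag assay-technology interferers.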
On the technique in general: Bead proximity is the source of the signal in Alpha formats.
In the case of `CN1CCCC1/C=C/C(=O)N1CC[C@@H](N(C)c2nc(OC[C@@]34CCCN3C[C@H](F)C4)nc3c(F)c(-c4cccc5ccc(F)c(Cl)c45)ncc23)C1` (stereo partly drawn) [Example 124, (E)-1-((R)-3-((7-(8-chloro-7-fluoronaphthalen-1-yl)-8-fluoro-2-(((2R,7aS)-2-fluorotetrahydro-1H-pyrrolizin-7a(5H)-yl)methoxy)pyrido[4,3-d]pyrimidin-4-yl)(methyl)amino)pyrrolidin-1-yl)-3-(1-methylpyrrolidin-2-yl)prop-2-en-1-one], the IC50 – broadly, the midpoint of a concentration-inhibition curve – was 10 to 100 nM.

Consider `CN1CC(/C=C/C(=O)N2CC[C@@H](N(C)c3nc(OC[C@@]45CCCN4C[C@H](F)C5)nc4c(F)c(-c5cccc6ccc(F)c(Cl)c56)ncc34)C2)C1` [Example 127, (E)-1-((R)-3-((7-(8-chloro-7-fluoronaphthalen-1-yl)-8-fluoro-2-(((2R,7aS)-2-fluorotetrahydro-1H-pyrrolizin-7a(5H)-yl)methoxy)pyrido[4,3-d]pyrimidin-4-yl)(methyl)amino)pyrrolidin-1-yl)-3-(1-methylazetidin-3-yl)prop-2-en-1-one], for which the IC50 was 100 to 500 nM.

Regarding `CN(c1nc(OCC23CCCN2CCC3)nc2c1CCN(c1cccc3cccc(Cl)c13)C2)[C@@H]1CCN(C(=O)/C=C/c2nc(C3(C)CC3)no2)C1` [Example 128, (R,E)-1-(3-((7-(8-chloronaphthalen-1-yl)-2-((hexahydro-1H-pyrrolizin-7a-yl)methoxy)-5,6,7,8-tetrahydropyrido[3,4-d]pyrimidin-4-yl)(methyl)amino)pyrrolidin-1-yl)-3-(3-(1-methylcyclopropyl)-1,2,4-oxadiazol-5-yl)prop-2-en-1-one], the IC50 lay in the range of 100 to 500 nM.

For the compound `CN(c1nc(OCC23CCCN2CCC3)nc2c(F)c(-c3cccc4cccc(Cl)c34)ncc12)[C@@H]1CCN(C(=O)/C=C/c2nc([C@H]3C[C@@H]3F)no2)C1` [Example 129, (E)-1-((R)-3-((7-(8-chloronaphthalen-1-yl)-8-fluoro-2-((tetrahydro-1H-pyrrolizin-7a(5H)-yl)methoxy)pyrido[4,3-d]pyrimidin-4-yl)(methyl)amino)pyrrolidin-1-yl)-3-(3-((1R,2S)-2-fluorocyclopropyl)-1,2,4-oxadiazol-5-yl)prop-2-en-1-one], the IC50 lay within 10 to 100 nM.

Turning to `CN(c1nc(OC[C@@]23CCCN2C[C@H](F)C3)nc2c(F)c(-c3cccc4cccc(Cl)c34)ncc12)[C@@H]1CCN(C(=O)/C=C/c2cn(C)cn2)C1` [Example 135, (E)-1-((R)-3-((7-(8-chloronaphthalen-1-yl)-8-fluoro-2-(((2R,7aS)-2-fluorohexahydro-1H-pyrrolizin-7a-yl)methoxy)pyrido[4,3-d]pyrimidin-4-yl)(methyl)amino)pyrrolidin-1-yl)-3-(1-methyl-1H-imidazol-4-yl)prop-2-en-1-one], the IC50 was in the range of 100 to 500 nM.

Regarding `CC(C)c1noc(/C=C/C(=O)N2CC[C@@H](N(C)c3nc(OC[C@@]45CCCN4C[C@H](F)C5)nc4c3CCN(c3cccc5cccc(Cl)c35)C4)C2)n1` [Example 136, (E)-1-((R)-3-((7-(8-chloronaphthalen-1-yl)-2-(((2R,7aS)-2-fluorohexahydro-1H-pyrrolizin-7a-yl)methoxy)-5,6,7,8-tetrahydropyrido[3,4-d]pyrimidin-4-yl)(methyl)amino)pyrrolidin-1-yl)-3-(3-isopropyl-1,2,4-oxadiazol-5-yl)prop-2-en-1-one], the IC50 is 10 to 100 nM.

In the case of `C=CC(=O)N1CC[C@@H](N(C)c2nc(OC[C@@]34CCCN3C[C@H](O)C4)nc3c(F)c(-c4cccc5cccc(Cl)c45)ncc23)C1` [Example 137, 1-((R)-3-((7-(8-chloronaphthalen-1-yl)-8-fluoro-2-(((2R,7aS)-2-hydroxytetrahydro-1H-pyrrolizin-7a(5H)-yl)methoxy)pyrido[4,3-d]pyrimidin-4-yl)(methyl)amino)pyrrolidin-1-yl)prop-2-en-1-one], the IC50 lay within 10 to 100 nM.

For `Cc1nsc(/C=C/C(=O)N2CC[C@@H](N(C)c3nc(OCC45CCCN4CCC5)nc4c(F)c(-c5cccc6cccc(Cl)c56)ncc34)C2)n1` [Example 138, (R,E)-1-(3-((7-(8-chloronaphthalen-1-yl)-8-fluoro-2-((tetrahydro-1H-pyrrolizin-7a(5H)-yl)methoxy)pyrido[4,3-d]pyrimidin-4-yl)(methyl)amino)pyrrolidin-1-yl)-3-(3-methyl-1,2,4-thiadiazol-5-yl)prop-2-en-1-one], the IC50 is 10 to 100 nM.

With `CN(c1nc(OCC23CCCN2CCC3)nc2c1CCN(c1cccc3cccc(Cl)c13)C2)[C@@H]1CCN(C(=O)/C=C/c2nc([C@H]3C[C@@H]3F)no2)C1` [Example 141, (E)-1-((R)-3-((7-(8-chloronaphthalen-1-yl)-2-((hexahydro-1H-pyrrolizin-7a-yl)methoxy)-5,6,7,8-tetrahydropyrido[3,4-d]pyrimidin-4-yl)(methyl)amino)pyrrolidin-1-yl)-3-(3-((1R,2S)-2-fluorocyclopropyl)-1,2,4-oxadiazol-5-yl)prop-2-en-1-one], the IC50 fell in the range of 10 to 100 nM.

For the compound `Cc1coc(/C=C/C(=O)N2CC[C@@H](N(C)c3nc(OCC45CCCN4CCC5)nc4c(F)c(-c5cccc6cccc(Cl)c56)ncc34)C2)n1` [Example 143, (R,E)-1-(3-((7-(8-chloronaphthalen-1-yl)-8-fluoro-2-((tetrahydro-1H-pyrrolizin-7a(5H)-yl)methoxy)pyrido[4,3-d]pyrimidin-4-yl)(methyl)amino)pyrrolidin-1-yl)-3-(4-methyloxazol-2-yl)prop-2-en-1-one], the IC50 was 100 to 500 nM.

In the case of `CN(c1nc(OCC23CCCN2CCC3)nc2c(F)c(-c3cccc4cccc(Cl)c34)ncc12)[C@@H]1CCN(C(=O)/C=C/c2nc(C(C)(C)C)no2)C1` [Example 147, (R,E)-3-(3-(tert-butyl)-1,2,4-oxadiazol-5-yl)-1-(3-((7-(8-chloronaphthalen-1-yl)-8-fluoro-2-((hexahydro-1H-pyrrolizin-7a-yl)methoxy)pyrido[4,3-d]pyrimidin-4-yl)(methyl)amino)pyrrolidin-1-yl)prop-2-en-1-one], the IC50 was in the range of 10 to 100 nM.

In the case of `CN(c1nc(OC[C@@]23CCCN2C[C@H](F)C3)nc2c1CCN(c1cccc3cccc(Cl)c13)C2)[C@@H]1CCN(C(=O)/C=C/c2nc(C(C)(C)C)no2)C1` [Example 148, (E)-3-(3-(tert-butyl)-1,2,4-oxadiazol-5-yl)-1-((R)-3-((7-(8-chloronaphthalen-1-yl)-2-(((2R,7aS)-2-fluorohexahydro-1H-pyrrolizin-7a-yl)methoxy)-5,6,7,8-tetrahydropyrido[3,4-d]pyrimidin-4-yl)(methyl)amino)pyrrolidin-1-yl)prop-2-en-1-one], the IC50 is 100 to 500 nM.

`CN(c1nc(OCC23CCCN2CCC3)nc2c1CCN(c1cccc3cccc(Cl)c13)C2)[C@@H]1CCN(C(=O)/C=C/c2nc(C(C)(C)C)no2)C1` [Example 149, (R,E)-3-(3-(tert-butyl)-1,2,4-oxadiazol-5-yl)-1-(3-((7-(8-chloronaphthalen-1-yl)-2-((hexahydro-1H-pyrrolizin-7a-yl)methoxy)-5,6,7,8-tetrahydropyrido[3,4-d]pyrimidin-4-yl)(methyl)amino)pyrrolidin-1-yl)prop-2-en-1-one]: the IC50 lay in the range of 10 to 100 nM.

On to `CN(CC1CN(C(=O)/C=C/c2nc(C(F)F)no2)C1)c1nc(OCC23CCCN2CCC3)nc2c1CCN(c1cccc3cccc(Cl)c13)C2` [Example 150, (E)-1-(3-(((7-(8-chloronaphthalen-1-yl)-2-((hexahydro-1H-pyrrolizin-7a-yl)methoxy)-5,6,7,8-tetrahydropyrido[3,4-d]pyrimidin-4-yl)(methyl)amino)methyl)azetidin-1-yl)-3-(3-(difluoromethyl)-1,2,4-oxadiazol-5-yl)prop-2-en-1-one], for which the IC50 is less than 10 nM.

`C=CC(=O)N1CC[C@@H](N(C)c2nc(OC[C@]34CCCN3C[C@@H](F)C4)nc3c(F)c(-c4cccc5ccc(F)c(Cl)c45)ncc23)C1` [Example 151, 1-((R)-3-((7-(8-chloro-7-fluoronaphthalen-1-yl)-8-fluoro-2-(((2S,7aR)-2-fluorohexahydro-1H-pyrrolizin-7a-yl)methoxy)pyrido[4,3-d]pyrimidin-4-yl)(methyl)amino)pyrrolidin-1-yl)prop-2-en-1-one]: the IC50 was more than 500 nM.

For the compound `CN(CC1CN(C(=O)/C=C/c2nc(C3COC3)no2)C1)c1nc(OC[C@@]23CCCN2C[C@H](F)C3)nc2c(F)c(-c3cccc4cccc(Cl)c34)ncc12` [Example 152, (E)-1-(3-(((7-(8-chloronaphthalen-1-yl)-8-fluoro-2-(((2R,7aS)-2-fluorotetrahydro-1H-pyrrolizin-7a(5H)-yl)methoxy)pyrido[4,3-d]pyrimidin-4-yl)(methyl)amino)methyl)azetidin-1-yl)-3-(3-(oxetan-3-yl)-1,2,4-oxadiazol-5-yl)prop-2-en-1-one], the 50% inhibitory concentration (IC50) was less than 10 nM.

With `CN(CC1CN(C(=O)/C=C/c2nc(C3COC3)no2)C1)c1nc(OCC23CCCN2CCC3)nc2c(F)c(-c3cccc4cccc(Cl)c34)ncc12` [Example 153, (E)-1-(3-(((7-(8-chloronaphthalen-1-yl)-8-fluoro-2-((tetrahydro-1H-pyrrolizin-7a(5H)-yl)methoxy)pyrido[4,3-d]pyrimidin-4-yl)(methyl)amino)methyl)azetidin-1-yl)-3-(3-(oxetan-3-yl)-1,2,4-oxadiazol-5-yl)prop-2-en-1-one], the IC50 is 10 to 100 nM.

As for `CN(c1nc(OC[C@@]23CCCN2C[C@H](F)C3)nc2c1CCN(c1cccc3cccc(Cl)c13)C2)[C@@H]1CCN(C(=O)/C=C/c2nc(C3COC3)no2)C1` [Example 154, (E)-1-((R)-3-((7-(8-chloronaphthalen-1-yl)-2-(((2R,7aS)-2-fluorohexahydro-1H-pyrrolizin-7a-yl)methoxy)-5,6,7,8-tetrahydropyrido[3,4-d]pyrimidin-4-yl)(methyl)amino)pyrrolidin-1-yl)-3-(3-(oxetan-3-yl)-1,2,4-oxadiazol-5-yl)prop-2-en-1-one], the IC50 is less than 10 nM.

(Values after patent publication US20250019387A1 (Frontier Medicines Corporation, priority 0001, published 2025).)
